Reference: patent US11046716B2, “Beta-lactamase inhibitors” (priority 2015, dated 2021)

What was measured:
[1] = system: E. cloacae expressing the Class C P99; test: Broth microdilution MIC assay with ceftazidime, E. cloacae P99; format: cell-based; settings: for MIC (μg/mL) of Exemplary Compounds in presence of fixed β-lactams: E. cl. 144200 p99 AmpC: Fixed CAZ (ceftazidime) 4 μg/mL
From the text: (§1) To determine the ability of test compounds to potentiate the inhibition of the growth of bacterial strains that produce beta-lactamase enzymes in the presence of a β-lactam antibiotic, classic cell based broth microdilution MIC assays were employed. Six bacteria strains producing beta-lactamase enzymes were used: E. coli expressing the Class A Extended Spectrum Beta-Lactamase (ESBL) CTX-M-15, E. cloacae expressing the Class C P99, K. pneumoniae expressing the Class A carbapenemase KPC-2, P. aeruginosa expressing the Class B carbapenemase VIM-2, K. pneumoniae expressing the class A carbapenemase KPC-2 and the class B carbapenemase VIM-4, and K. pneumoniae producing the Class D carbapenemase OXA-48. The assay was conducted in Cation Adjusted Mueller Hinton Broth (CAMHB, BD #212322, BD Diagnostic Systems, Sparks, Md.). Bacteria strains were grown for 3-5 hours in CAMBH broth. Test compounds (Examples 1-94) were added to a microtiter plate in 2-fold serial dilutions in CAMHB in a final concentration range of 16 μg/mL to 0.125 μg/ml. An overlay of CAMHB containing a Beta-lactam was added to the compounds at a final static concentration of 4 μg/ml. […] In addition to the titration of test compounds the MICs of a panel of control beta-lactams is also tested to ensure the strains are behaving consistently from test to test. Once the test compound and antibiotics are added the plates can be inoculated according to CLSI broth microdilution method. After inoculation the plates are incubated for 16-20 hours at 37° C. then the Minimal Inhibitory Concentration (MIC) of the test compound is determined visually.
(§2) Using the methodology described above, examples of the current invention were evaluated for their ability to inhibit the growth of β-lactamase-producing bacteria in the presence of a β-lactam antibiotic.

[2] = system: E. coli expressing the Class A Extended Spectrum Beta-Lactamase (ESBL) CTX-M-15; test: Broth microdilution MIC assay with ceftazidime, E. coli CTX-M-15; format: cell-based; settings: for MIC (μg/mL) of Exemplary Compounds in presence of fixed β-lactams: E. coli ESBL4 CTX-M-15: Fixed CAZ (ceftazidime) 4 μg/mL
From the text: as §1, §2

[3] = molecular target: OXA-48 (UniProt Q6XEC0); test: β-lactamase enzyme inhibition assay, Class D oxacillinase; format: biochemical; settings: read-out: OXA-48
[4] = system: K. pneumoniae producing the Class D carbapenemase OXA-48; test: Broth microdilution MIC assay with meropenem, K. pneumoniae OXA-48; format: cell-based; settings: Fixed Mero (meropenem) 4 μg/mL; K. p. 11978 OXA-48
From the text: as §1, §2

[5] = system: K. pneumoniae expressing the Class A carbapenemase KPC-2; test: Broth microdilution MIC assay with meropenem, K. pneumoniae KPC-2; format: cell-based; settings: Fixed Mero (meropenem) 4 μg/mL; K. p. 156319 KPC-3
From the text: as §1, §2

[6] = system: K. pneumoniae expressing the class A carbapenemase KPC-2 and the class B carbapenemase VIM-4; test: Broth microdilution MIC assay with meropenem, K. pneumoniae KPC-2 and VIM-4; format: cell-based; settings: Fixed Mero (meropenem) 4 μg/mL; K. p. A-1797 KPC-2 VIM-4
From the text: as §1, §2

[7] = molecular target: T1, KPC-2 (Klebsiella pneumoniae, UniProt Q9F663); test: β-lactamase enzyme inhibition assay, KPC-2 (imipenem substrate); format: biochemical; settings: Class A; imipenem substrate, 300 nm; read-out: KPC-2
T1 construct: made in house; host or cells: E. coli BL21(DE3)
T1 sequence (Q9F663 25-293, looked up): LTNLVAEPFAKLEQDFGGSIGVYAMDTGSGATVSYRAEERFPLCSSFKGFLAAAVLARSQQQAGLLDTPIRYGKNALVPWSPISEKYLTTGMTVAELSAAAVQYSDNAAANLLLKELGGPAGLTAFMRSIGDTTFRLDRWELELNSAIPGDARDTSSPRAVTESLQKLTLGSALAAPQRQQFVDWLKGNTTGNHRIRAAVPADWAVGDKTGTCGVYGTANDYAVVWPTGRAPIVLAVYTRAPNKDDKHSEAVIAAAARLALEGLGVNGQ
Protocol: (§3) For SHV-5, Kpc-2, p99AmpC and OXA-1 β-lactamases, E. coli BL21(DE3) bacterial cells carrying expression plasmids (expressed as native untagged proteins) for the individual β-lactamases were grown in 1 L of Superbroth (Teknova Inc. Hollister, Calif.) supplemented with 100 μg/ml kanamycin selection and 1×5052 (0.5% glycerol, 0.05% glucose and 0.2% α-lactose) at 35° C. for 18-20 hours. Cells were harvested by centrifugation (4,000×g, 4° C., 20 min), resuspended in 50 ml of 10 mM HEPES pH 7.5 ( 1/20 of the initial volume). The cells were lysed by sonication (5 pulses of 45 seconds) at 45 W on ice. The lysates were clarified by centrifugation at 10,000×g for 40 minutes at 4° C. Samples were diluted 5-fold in 50 mM sodium acetate pH 5.0, stored overnight at 4° C., after which they were centrifuged at 10,000×g for 30 minutes to clarify, and filtered through 0.45 μm filters. The samples were loaded onto a 5 ml Capto S sepharose cation exchange column (GE Healthcare) pre-equilibrated with 50 mM sodium acetate pH 5.0. The column was washed with 5 column volumes of 50 mM sodium acetate pH 5.0 to wash out unbound protein and a linear gradient of NaCl (0 to 500 mM) was used to elute the protein (over 16 CV) from the column. Fractions were assayed for β-lactamase activity using Centa (Calbiochem, Gibbstown, N.J.) or Nitrocefin (EMD Millipore chemicals, Darmstadt, Germany) as a reporter β-lactamase substrate for activity in the isolated fractions. Active fractions were pooled, concentrated and further purified by gel filtration chromatography on a Superdex 75 prep grade gel filtration column (GE Healthcare, Piscataway, N.J.) pre-equilibrated in 50 mM Hepes pH 7.5, 150 mM NaCl. Active fractions were pooled concentrated, quantitated by BCA protein determination (Thermo Scientific, Rockford, Ill.), dialyzed into PBS and frozen at −80° C. in 20% glycerol until use.
(§4) An equal volume of diluted enzyme stock was added, and the plates were incubated at 37° C. for 15 min. Nitrocefin was used as substrate for p99 AmpC, VIM-2 and OXA-1 and dispensed into each well at a final concentration of 100 μM. Absorbance at 486 nm was immediately monitored for 10 min using a Biotek Powerwave XS2 microplate spectrophotometer using the GEN5 software package (Biotek Instruments, Winooski Vt.). In an analogous fashion, imipenem was used as substrate for Kpc-2 and Cefotaxime was used for SHV-5, while changes in absorbance upon hydrolysis of the β-lactam ring were monitored at 300 nm and 260 nm respectively in UV-transparent 96-well microtiter assay plates. Maximum rates of hydrolysis were compared to those in control wells (without inhibitors), and percentages of enzyme inhibition were calculated for each concentration of inhibitor. The concentration of inhibitor needed to reduce the initial rate of hydrolysis of substrate by 50% (IC50) was calculated as the residual activity of β-lactamase at 486 nm using GraFit version 7 kinetics software package (Erithacus Software, Surrey, UK).
(§5) Using the methodology described above, examples of the current invention were evaluated for their ability to inhibit β-lactamase enzymes from all four Ambler classifications (A through D). […] NT=Not tested.

[8] = molecular target: T2, VIM-2 (Escherichia coli, UniProt Q5U7L7); test: β-lactamase enzyme inhibition assay, VIM-2 (nitrocefin substrate); format: biochemical; settings: Class B; nitrocefin substrate, 486 nm; read-out: VIM-2
T2 construct: made in house; host or cells: E. coli BL21(DE3)
Protocol: For Vim-2 metallo β-lactamase, the procedure was identical with the following exceptions, first the protein was not pH adjusted to pH 5 with 50 mM sodium acetate, second, the chromatography step was changed to a 5 ml Q sepharose anion exchange column pre-equilibrated with 50 mM Hepes pH 7.5, and elution of the protein was achieved by a linear gradient of NaCl (0-600 mM). Finally, the VIM-2 purification required a second run (3rd step) on the Q sepharose anion exchange column to achieve acceptable purity (>90%).
as §4, §5

[9] = molecular target: T3, AmpC (Enterobacter cloacae, UniProt P05364); test: β-lactamase enzyme inhibition assay, p99 AmpC (nitrocefin substrate); format: biochemical
T3 construct: made in house; host or cells: E. coli BL21(DE3)
T3 sequence (P05364 21-381): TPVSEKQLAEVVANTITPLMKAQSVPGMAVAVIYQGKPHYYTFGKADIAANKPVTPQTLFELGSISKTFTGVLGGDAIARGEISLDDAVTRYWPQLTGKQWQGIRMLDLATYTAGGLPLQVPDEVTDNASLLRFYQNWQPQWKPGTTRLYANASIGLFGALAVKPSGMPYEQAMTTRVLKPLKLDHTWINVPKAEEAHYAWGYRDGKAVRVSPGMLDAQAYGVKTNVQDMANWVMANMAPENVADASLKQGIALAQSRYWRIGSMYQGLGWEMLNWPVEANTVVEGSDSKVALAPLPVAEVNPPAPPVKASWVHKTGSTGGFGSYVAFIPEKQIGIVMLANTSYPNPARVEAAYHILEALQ
Protocol: as §3, §4, §5

[10] = molecular target: T4, SHV-5 (Klebsiella pneumoniae, UniProt P0A3M1); test: β-lactamase enzyme inhibition assay, SHV-5 (cefotaxime substrate); format: biochemical
T4 construct: made in house; host or cells: E. coli BL21(DE3)
T4 sequence (P0A3M1 22-286): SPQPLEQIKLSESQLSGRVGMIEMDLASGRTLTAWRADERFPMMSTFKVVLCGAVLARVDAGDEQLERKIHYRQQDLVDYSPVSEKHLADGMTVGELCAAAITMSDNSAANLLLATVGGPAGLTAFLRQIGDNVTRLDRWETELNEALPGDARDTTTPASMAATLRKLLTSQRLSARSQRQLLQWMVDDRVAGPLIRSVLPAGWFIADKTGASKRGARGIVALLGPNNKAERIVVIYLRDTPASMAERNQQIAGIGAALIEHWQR
Protocol: as §3, §4, §5

[11] = system: P. aeruginosa expressing the Class B carbapenemase VIM-2; test: Broth microdilution MIC assay with meropenem, P. aeruginosa VIM-2; format: cell-based; settings: Fixed Mero (meropenem) 4 μg/mL; P. aerug. 2775 VIM-2
From the text: as §1, §2

Row | Compound | MIC ([1]; Enterobacter cloacae, read-out: MIC alone) [µg/mL] | MIC ([2]; Escherichia coli, read-out: MIC alone) [µg/mL] | IC50 [3] [nM] | MIC (μg/mL) of Exemplary Compounds in presence of fixed β-lactams: K. p. 11978 OXA-48 [4] | MIC (μg/mL) of Exemplary Compounds in presence of fixed β-lactams: K. p. 156319 KPC-3 [5] | MIC (μg/mL) of Exemplary Compounds in presence of fixed β-lactams: K. p. A-1797 KPC-2 VIM-4 [6] | IC50 [7] [nM] | MIC (μg/mL) of Exemplary Compounds in presence of fixed β-lactams: E. cl. 144200 p99 AmpC [1] | IC50 [8] [nM] | IC50 [9] [nM] | IC50 [10] [nM] | MIC (μg/mL) of Exemplary Compounds in presence of fixed β-lactams: E. coli ESBL4 CTX-M-15 [2] | MIC (μg/mL) of Exemplary Compounds in presence of fixed β-lactams: P. aerug. 2775 VIM-2 [11]
1 | CC(C)(O/N=C(\C(=O)N[C@@H]1C(=O)N2C(C(=O)[O-])=C(C[n+]3ccccc3)CS[C@H]12)c1csc(N)n1)C(=O)O [Ceftazidime, ceftazidime, reference compound] | 128 | > 128 | – | – | – | – | – | – | – | – | – | – | –
2 | O=C(Cn1cc(-c2ccccn2)nn1)N[C@H]1Cc2cccc(C(=O)O)c2OB1O [Example 10, (R)-2-hydroxy-3-(2-(4-(pyridin-2-yl)-1H-1,2,3-triazol-1-yl)acetamido)-3,4-dihydro-2H-benzo[e][1,2]oxaborinine-8-carboxylic acid] | – | – | < 100 | B (B represents an MIC between 1 and 16 μg/mL inclusive) | B (B represents an MIC between 1 and 16 μg/mL inclusive) | A (A represents an MIC>16 μg/mL) | < 100 | C (C represents an MIC of <1 μg/mL) | 1000 to 10000 | < 100 | < 100 | C (C represents an MIC of <1 μg/mL) | –
3 | NCc1nnnn1CC(=O)N[C@H]1Cc2cccc(C(=O)O)c2OB1O [Example 17, (R)-3-(2-(5-(aminomethyl)-1H-tetrazol-1-yl)acetamido)-2-hydroxy-3,4-dihydro-2H-benzo[e][1,2]oxaborinine-8-carboxylic acid] | – | – | 100 to 1000 | B (B represents an MIC between 1 and 16 μg/mL inclusive) | B (B represents an MIC between 1 and 16 μg/mL inclusive) | B (B represents an MIC between 1 and 16 μg/mL inclusive) | < 100 | C (C represents an MIC of <1 μg/mL) | < 100 | – | – | C (C represents an MIC of <1 μg/mL) | C (C represents an MIC of <1 μg/mL)
4 | O=C(Cn1cncn1)N[C@H]1Cc2cccc(C(=O)O)c2OB1O [Example 18, (R)-3-(2-(1H-1,2,4-triazol-1-yl)acetamido)-2-hydroxy-3,4-dihydro-2H-benzo[e][1,2]oxaborinine-8-carboxylic acid] | – | – | 1000 to 10000 | B (B represents an MIC between 1 and 16 μg/mL inclusive) | C (C represents an MIC of <1 μg/mL) | B (B represents an MIC between 1 and 16 μg/mL inclusive) | < 100 | C (C represents an MIC of <1 μg/mL) | 100 to 1000 | – | – | C (C represents an MIC of <1 μg/mL) | B (B represents an MIC between 1 and 16 μg/mL inclusive)
5 | Cc1nnn(CC(=O)N[C@H]2Cc3cccc(C(=O)O)c3OB2O)c1CN [Example 120, (R)-3-(2-(5-(aminomethyl)-4-methyl-1H-1,2,3-triazol-1-yl)acetamido)-2-hydroxy-3,4-dihydro-2H-benzo[e][1,2]oxaborinine-8-carboxylic acid] | – | – | < 100 | B (B represents an MIC between 1 and 16 μg/mL inclusive) | B (B represents an MIC between 1 and 16 μg/mL inclusive) | B (B represents an MIC between 1 and 16 μg/mL inclusive) | < 100 | C (C represents an MIC of <1 μg/mL) | < 100 | < 100 | 100 to 1000 | C (C represents an MIC of <1 μg/mL) | –
6 | NCCn1cc(CC(=O)N[C@H]2Cc3cccc(C(=O)O)c3OB2O)nn1 [Example 122, (R)-3-(2-(1-(2-aminoethyl)-1H-1,2,3-triazol-4-yl)acetamido)-2-hydroxy-3,4-dihydro-2H-benzo[e][1,2]oxaborinine-8-carboxylic acid] | – | – | 100 to 1000 | B (B represents an MIC between 1 and 16 μg/mL inclusive) | B (B represents an MIC between 1 and 16 μg/mL inclusive) | B (B represents an MIC between 1 and 16 μg/mL inclusive) | < 100 | – | 100 to 1000 | < 100 | < 100 | C (C represents an MIC of <1 μg/mL) | C (C represents an MIC of <1 μg/mL)
